Consider 8 compounds from PubChem BioAssay (NCI).

Some test systems named below: ACHN renal; HL-60(TB) leukemia; SK-MEL-5 melanoma; NCI-H522 lung; HOP-62 NSCLC; UACC-257 melanoma; NCI-H23 lung; RPMI-8226 leukemia; BT-549 breast; SF-539 CNS.
Holding throughout (experiment): DTP human tumour cell line panel, 48 h

Molecules are shown by their SMILES. “And” between values parts separate entries of the source, which are not always exact repeats. Identical values can stand only once.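 These data come from cells grown in 96-well plates and exposed to compound for 48 hours at five concentrations. GI50 marks 50% less growth. TGI is the concentration that stops growth completely.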

`CC[C@@]12CC(C(=O)OC)=C3Nc4ccccc4[C@@]34CCN(C[C@H]3O[C@H]31)[C@@H]24`: the GI50 in the assay on ACHN renal is more than 100 µM; in the assay with HL-60(TB) leukemia, 24.7 µM; with SK-MEL-5 melanoma it was 21.2 µM; with NCI-H522 lung, 20.9 µM; with HOP-62 NSCLC, 94.9 µM; with UACC-257 melanoma, 66.7 µM. In addition, the GI50 in the assay with NCI-H23 lung was 60.7 µM; in the assay on RPMI-8226 leukemia, 23.5 µM; with BT-549 breast, 43.5 µM; in the assay on SF-539 CNS, 61.2 µM. For the same compound, the TGI is more than 100 µM in the assay on ACHN renal; 81 µM in the assay on HL-60(TB) leukemia; 57.7 µM in the assay with SK-MEL-5 melanoma; more than 100 µM with NCI-H522 lung; more than 100 µM in the assay on HOP-62 NSCLC; more than 100 µM in the assay with UACC-257 melanoma. The TGI in the assay on NCI-H23 lung, in the assay with RPMI-8226 leukemia, in the assay with BT-549 breast and in the assay with SF-539 CNS was more than 100 µM throughout.
Regarding `O=C1Nc2ccc(I)cc2/C1=C/c1cc(Br)c(O)c(Br)c1`, the GI50 with ACHN renal is > 19.8 µM and 21.8 µM; with HL-60(TB) leukemia it was more than 47.8 µM; in the assay on SK-MEL-5 melanoma, 13 µM and 10.5 µM; in the assay with NCI-H522 lung, 16.2 µM and 16.5 µM; in the assay on HOP-62 NSCLC, > 25 µM and 21.9 µM; in the assay with UACC-257 melanoma it was > 20.7 µM and 16.5 µM. In addition, the GI50 in the assay on NCI-H23 lung is > 17 µM and 18.1 µM; with RPMI-8226 leukemia, 15.3 µM and 6.81 µM; with BT-549 breast, > 17.9 µM and 8.07 µM; with SF-539 CNS, > 20.2 µM and 14.1 µM. The TGI in the assay on ACHN renal was more than 85.8 µM; in the assay with HL-60(TB) leukemia, more than 100 µM; in the assay with SK-MEL-5 melanoma it was > 25 µM and 23.6 µM; with NCI-H522 lung, > 25 µM and 42.3 µM; in the assay with HOP-62 NSCLC, > 25 µM and 46.9 µM; in the assay on UACC-257 melanoma, > 25 µM and 69.2 µM. Besides, the TGI was > 25 µM and 55 µM in the assay with NCI-H23 lung; more than 100 µM in the assay on RPMI-8226 leukemia; > 25 µM and 32.7 µM in the assay with BT-549 breast; > 25 µM and 43.8 µM in the assay on SF-539 CNS.
On to `CCCN1CCCC(c2ccc(Nc3nc(Nc4cc(F)ccc4C(N)=O)c4cc[nH]c4n3)c(OC)c2)C1` (stereo not drawn), for which the GI50 is 2.92 µM in the assay with ACHN renal; 0.0156 µM in the assay with HL-60(TB) leukemia; 3.03 µM in the assay on SK-MEL-5 melanoma; 2.85 µM with NCI-H522 lung; 2.62 µM with HOP-62 NSCLC; 0.188 µM in the assay with UACC-257 melanoma. Moreover, the GI50 in the assay on NCI-H23 lung was 1.5 µM; with RPMI-8226 leukemia it was 3.65 µM; in the assay on BT-549 breast, 3.74 µM; in the assay with SF-539 CNS it was 2.14 µM. Moreover, the TGI was 6.23 µM in the assay on ACHN renal; 4.82 µM in the assay on HL-60(TB) leukemia; 6.24 µM in the assay on SK-MEL-5 melanoma; 6.01 µM in the assay with NCI-H522 lung; 5.58 µM with HOP-62 NSCLC; 4.54 µM with UACC-257 melanoma. Moreover, the TGI was found to be 5.95 µM in the assay on NCI-H23 lung, 10.8 µM with RPMI-8226 leukemia, 7.4 µM in the assay on BT-549 breast and 6.05 µM with SF-539 CNS.
With `O=c1[nH]c2c(ccc3cnccc32)c2c1CCC2`, the GI50 in the assay with ACHN renal is 0.279 µM; in the assay with HL-60(TB) leukemia it was 0.272 µM; in the assay on SK-MEL-5 melanoma it was 0.196 µM; with NCI-H522 lung, 0.277 µM; in the assay with HOP-62 NSCLC it was 0.431 µM; in the assay on UACC-257 melanoma, 0.245 µM. The GI50 in the assay with NCI-H23 lung was 0.394 µM; with RPMI-8226 leukemia it was 0.244 µM; with BT-549 breast, 0.172 µM; in the assay on SF-539 CNS, 0.219 µM. The TGI in the assay on ACHN renal was more than 100 µM; in the assay on SK-MEL-5 melanoma, 0.517 µM; in the assay on HOP-62 NSCLC, more than 100 µM; with UACC-257 melanoma it was 0.833 µM; in the assay on NCI-H23 lung, more than 20.3 µM; in the assay with RPMI-8226 leukemia it was 1.18 µM. For the same compound, the TGI in the assay on BT-549 breast stood at 0.532 µM; with SF-539 CNS, 0.585 µM.
For the compound `O=C(CNC(=O)c1cccc2ccccc12)Nc1ccccc1Oc1ccc(O)cc1`, the GI50 is 1.86 µM with ACHN renal; 0.705 µM with HL-60(TB) leukemia; 0.846 µM with SK-MEL-5 melanoma; 0.852 µM in the assay with NCI-H522 lung; 1.35 µM in the assay with HOP-62 NSCLC; more than 25 µM in the assay on UACC-257 melanoma. Further, the GI50 in the assay on NCI-H23 lung was 2.16 µM; with RPMI-8226 leukemia, 0.97 µM; in the assay with BT-549 breast, 1.63 µM; in the assay with SF-539 CNS it was 0.688 µM. Moreover, the TGI with ACHN renal is more than 25 µM; with HL-60(TB) leukemia, 2.06 µM; in the assay with SK-MEL-5 melanoma it was more than 25 µM; in the assay on NCI-H522 lung it was more than 25 µM; in the assay on HOP-62 NSCLC, more than 25 µM; in the assay on UACC-257 melanoma, more than 25 µM. Besides, the TGI in the assay with NCI-H23 lung is more than 25 µM; with RPMI-8226 leukemia it was 10.4 µM; in the assay with BT-549 breast it was more than 25 µM; in the assay on SF-539 CNS, 2.45 µM.
For `CCN(CC)CCN1C(=O)c2cccc3cc(N)cc(c23)C1=O`, the TGI with ACHN renal was more than 100 µM; with HL-60(TB) leukemia, 50.5 µM; in the assay with SK-MEL-5 melanoma, 26.6 µM; in the assay with NCI-H522 lung, 21.8 µM; in the assay on HOP-62 NSCLC, 40.3 µM; in the assay with UACC-257 melanoma, 25.7 µM. Further, the TGI was 20.3 µM with NCI-H23 lung, 39.8 µM in the assay with RPMI-8226 leukemia, 40.4 µM in the assay with BT-549 breast and 20.4 µM with SF-539 CNS.
As to `Nc1c2ccccc2nc2ccccc12`, the GI50 in the assay on ACHN renal is 0.669 µM and 1.89 µM; with HL-60(TB) leukemia, 3.05 µM and 1.85 µM; in the assay with SK-MEL-5 melanoma, 1.62 µM and 2.12 µM; in the assay with NCI-H522 lung, 1.15 µM and 3.03 µM; in the assay on HOP-62 NSCLC, 1.66 µM and 3.66 µM; in the assay on UACC-257 melanoma, 1.54 µM and 3.21 µM. Besides, the GI50 in the assay with NCI-H23 lung is 1.8 µM and 3.18 µM; in the assay with RPMI-8226 leukemia, 3.26 µM and 1.48 µM; in the assay with BT-549 breast it was 4.04 µM and 5.12 µM; with SF-539 CNS, 2.56 µM and 4.87 µM. Besides, the TGI is 8.61 µM and 7.19 µM with ACHN renal; 6.99 µM and 10 µM with HL-60(TB) leukemia; 2.99 µM and 4.46 µM with SK-MEL-5 melanoma; 2.63 µM and 10.1 µM in the assay with NCI-H522 lung; 4.96 µM and 15.2 µM in the assay on HOP-62 NSCLC; 3.06 µM and 10.1 µM with UACC-257 melanoma. The TGI in the assay on NCI-H23 lung was 5.49 µM and 15.4 µM; with RPMI-8226 leukemia it was 18.6 µM and 5.94 µM; in the assay on BT-549 breast, 15.4 µM and 26.2 µM; with SF-539 CNS, 7.93 µM and 16.2 µM.
Take `NC1=Nc2cc(OCCCCN3Cc4ccccc4C3)c(OCC3CC3)cc2C12CCCC2`: the GI50 in the assay with ACHN renal was 1.71 µM; in the assay with HL-60(TB) leukemia, 1.73 µM; with SK-MEL-5 melanoma, 1.71 µM; in the assay with NCI-H522 lung it was 1.86 µM; in the assay on HOP-62 NSCLC, 1.63 µM; in the assay with UACC-257 melanoma, 1.62 µM. Further, the GI50 is 2.15 µM in the assay on NCI-H23 lung, 1.53 µM with RPMI-8226 leukemia, 1.57 µM in the assay with BT-549 breast and 1.53 µM in the assay with SF-539 CNS. In addition, the TGI was determined as 3.24 µM with ACHN renal; 3.55 µM in the assay on HL-60(TB) leukemia; 3.1 µM with SK-MEL-5 melanoma; 3.84 µM with NCI-H522 lung; 3.39 µM in the assay on HOP-62 NSCLC; 3.48 µM in the assay with UACC-257 melanoma. Also, the TGI in the assay on NCI-H23 lung was found to be 5.36 µM; with RPMI-8226 leukemia, 4.02 µM; in the assay with BT-549 breast, 3.33 µM; in the assay with SF-539 CNS, 2.91 µM.
